Type in all cases: biochemical
One assay deals with T1, Human recombinant MMP-9 (Homo sapiens, UniProt P14780).
T1 construct: made in house; host or cells: MMP-9-transfected HT1080 cells (spent media)
The experiment in a line: In vitro MMP inhibition, IC50 determination (fluorogenic substrate I). Conditions: value outside parenthesis. The method in brief: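 MMP-9 proenzyme purified from transfected HT1080 cell media, activated with APMA or trypsin. Compound dilutions in pH 7.5 Tris/NaCl/CaCl2 buffer with 0.05% polyoxyethylene 23 lauryl ether, incubated at room temperature with 4 μM MCA/Dpa substrate I. IC50 from fluorescence loss (ex 328, em 415 nm) versus inhibitor concentration.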

The target of the next assay is T2, Human recombinant MMP-13 (Homo sapiens, UniProt P45452).
T2 construct: made in house; host or cells: baculovirus / insect cells
Described as above. The following applies: value outside parenthesis. The method in brief: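 Fluorescence at 415 nm (excitation 328 nm) reports Gly-Leu cleavage of 4 μM quenched methoxycoumarin peptide substrate I. Human recombinant MMP-13, activated by trypsin or APMA, was incubated at room temperature with varied inhibitor concentrations in pH 7.5 Tris/NaCl/CaCl2 buffer; IC50 derived from reduced fluorescence.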

In a further assay the target is T3, Human recombinant MMP-2 (Homo sapiens, UniProt P08253).
T3 construct: made in house; host or cells: MMP-2-transfected p2AHT2 cells
T3 sequence (P08253 110-660): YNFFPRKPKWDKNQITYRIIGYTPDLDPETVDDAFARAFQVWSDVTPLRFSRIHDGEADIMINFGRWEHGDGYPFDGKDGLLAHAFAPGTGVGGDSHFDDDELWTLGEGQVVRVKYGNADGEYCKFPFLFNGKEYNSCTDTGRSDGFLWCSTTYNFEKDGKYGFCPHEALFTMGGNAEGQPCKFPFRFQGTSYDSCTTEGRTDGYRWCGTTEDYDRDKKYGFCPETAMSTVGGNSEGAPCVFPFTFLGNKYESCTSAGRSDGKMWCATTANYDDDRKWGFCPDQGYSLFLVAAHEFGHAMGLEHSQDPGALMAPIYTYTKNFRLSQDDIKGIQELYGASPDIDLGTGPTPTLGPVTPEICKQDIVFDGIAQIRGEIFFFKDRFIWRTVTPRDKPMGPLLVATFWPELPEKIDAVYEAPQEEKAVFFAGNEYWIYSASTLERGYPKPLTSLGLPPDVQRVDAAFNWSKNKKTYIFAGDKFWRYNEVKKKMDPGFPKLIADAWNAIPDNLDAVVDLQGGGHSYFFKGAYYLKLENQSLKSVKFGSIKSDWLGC
Kind of assay: In vitro MMP inhibition, Ki determination (fluorogenic substrate II). The following applies: value in parenthesis. As to the method:
Several hydroxamates and salts thereof were analyzed in in vitro assays to determine their ability to inhibit the MMP cleavage of peptide substrates. Inhibition (Ki) and IC50 constants were calculated from the assayed hydroxamate-MMP interactions.
Human recombinant MMP-1, MMP-2, MMP-9, MMP-13, and MMP-14 were used in this assay. All enzymes were prepared in Assignee's laboratories following usual laboratory procedures. Protocols for the preparation and use of these enzymes are available in the scientific literature. See, e.g., Enzyme Nomenclature (Academic Press, San Diego, Calif., 1992) (and the citations therein). See also, Frije et al., J. Biol. Chem., 26(24), 16766-73 (1994).
The MMP-2 proenzyme was purified by gelatin Sepharose chromatography from MMP-2-transfected p2AHT2 cells provided by Dr. Gregory Goldberg of Washington University (St. Louis, Mo.).
All MMPs were activated using 4-aminophenylmercuric acetate (“APMA”, Sigma Chemical, St. Louis, Mo.) or trypsin. MMP-9 also was activated using human recombinant MMP-3 (purified in Assignee's laboratory following standard cloning and purification techniques).
Two fluorogenic, methoxycoumarin-containing polypeptide substrates were used in the MMP inhibition assays:
MCA-ArgProLeuGlyLeuDpaAlaArgGluArgNH2 (II)
Here, “Dpa” is 3-(2,4-dinitrophenyl)-L-2,3-diaminopropionyl group, and “MCA” is 7-methoxycoumarin-4-yl acetyl. Substrate (I) was purchased from Baychem (Redwood City, Calif.), and substrate II was prepared Assignee's laboratory. Substrate I was used in the IC50 determination assays, while substrate II was used in the Ki determination assays. In the absence of MMP inhibitory activity, either substrate is cleaved at the Gly-Leu peptide bond. This cleavage separates the highly fluorogenic peptide from the 2,4-dinitrophenyl quencher, thus resulting in increase of fluorescent intensity.
The stock solutions of the assayed hydroxamates (or salts thereof) were prepared in 1% dimethyl sulfoxide (DMSO). These stock solutions were diluted in Buffer A (100 mM Tris-HCl, 100 mM NaCl, 10 mM CaCl2, 0.05% polyoxyethylene 23 lauryl ether, pH 7.5) to obtain solutions with different hydroxamate concentrations, i.e., assay solutions with different concentrations of the assayed MMP inhibitory compound. The experiment controls contained the same amount of Buffer A/DMSO as the assayed sample, but contained no hydroxamate (or salt thereof).
The assays from which the Ki determinations were made were performed as follows. The assayed hydroxamate samples were incubated in separate wells of untreated white polystyrene plates (Nunc Nalgene International, Rochester, N.Y.), and analyzed on a Tecan SpectraFlour Plus plate reader. The excitation wavelength was 330 nm, and the emission wavelength—420 nm. All samples (assayed hydroxamates and controls) were incubated in separate plate wells at room temperature for 1 hr in the presence of 4 μM of MMP substrate (II). In the absence of MMP inhibitory activity, substrate II was cleaved at the Gly-Leu bond resulting in an increase of relative fluorescence. Inhibition was observed as a reduced rate of this increase in relative fluorescence. The various hydroxamates were analyzed using a single low enzyme concentration with a single substrate concentration fixed at or below the Km. This protocol is a modification of method by Knight et al., FEBS Lett., 296(3), 263-266 (1992). Apparent inhibitory constants were determined by non-linear regression of reaction velocity as a function of inhibitor and enzyme concentration using Morrison's equation, as described by Kuzmic, Anal. Biochem. 286, 45-50 (2000). […] Since the substrate concentration was chosen to be at or below the Km, the apparent Ki's from this analysis were reported as Ki's without correction for the influence of substrate.

As a reminder, the pIC50 is the IC50 on a negative log10 scale, so that one unit is a factor of ten. The pKi is −log10 of the Ki, conventionally taken in molar units.

Molecules are shown by their SMILES. pIC50, pKi: −log10 of the molar value.

T1 sequence (P14780 107-707 limits assumed): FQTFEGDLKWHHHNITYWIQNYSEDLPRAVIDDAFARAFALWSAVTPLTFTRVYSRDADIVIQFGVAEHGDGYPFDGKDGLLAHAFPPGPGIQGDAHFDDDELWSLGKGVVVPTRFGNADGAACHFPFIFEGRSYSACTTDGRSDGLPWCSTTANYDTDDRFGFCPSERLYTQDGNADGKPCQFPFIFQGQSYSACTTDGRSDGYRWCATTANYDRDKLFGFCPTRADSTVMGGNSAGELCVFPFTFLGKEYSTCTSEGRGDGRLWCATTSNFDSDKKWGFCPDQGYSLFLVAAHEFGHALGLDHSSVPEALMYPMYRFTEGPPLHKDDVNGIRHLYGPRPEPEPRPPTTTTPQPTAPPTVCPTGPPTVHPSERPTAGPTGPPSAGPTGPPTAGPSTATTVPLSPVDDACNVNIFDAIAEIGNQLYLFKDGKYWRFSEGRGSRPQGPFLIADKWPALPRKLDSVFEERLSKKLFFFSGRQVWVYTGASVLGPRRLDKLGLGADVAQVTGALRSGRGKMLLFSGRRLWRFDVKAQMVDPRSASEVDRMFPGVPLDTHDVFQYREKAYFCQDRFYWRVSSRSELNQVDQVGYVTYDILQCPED

Regarding `O=C(NO)C1(S(=O)(=O)c2ccc(OCCCc3cccc(-c4cccc(F)c4)c3)cc2)CCOCC1` [Example 161], the negative logarithm of the IC50 (pIC50) was 5.58 at Human recombinant MMP-9 and 8.59 at Human recombinant MMP-13. Also, at Human recombinant MMP-2, the pKi was 5.75.

For `O=C(NO)C1(S(=O)(=O)c2ccc(OCCCc3cccc(-c4ccccc4F)c3)cc2)CCOCC1` [Example 163], the negative-log IC50 (pIC50) at Human recombinant MMP-9 was 5.54; at Human recombinant MMP-13 it was 8.60. The negative logarithm of the Ki (pKi) on Human recombinant MMP-2 was 6.00.

For the molecule `COCCN1CCC(C(=O)NO)(S(=O)(=O)c2ccc(OCCCc3nc(-c4ccc(CC(C)C)cc4)no3)cc2)CC1` [Example 175], the negative-log IC50 (pIC50) at Human recombinant MMP-9 was 5.14; at Human recombinant MMP-13, 8.85. Also, the pKi at Human recombinant MMP-2 was 6.06.

For the molecule `COCCN1CCC(C(=O)NO)(S(=O)(=O)c2ccc(OCCCc3nnc(-c4ccccc4C(F)(F)F)o3)cc2)CC1` [Example 178], the figures for the negative-log IC50 (pIC50) on Human recombinant MMP-9 and at Human recombinant MMP-13 were 5.93 and 8.11, respectively. Also, the pKi at Human recombinant MMP-2 is 7.41.

As for `O=C(CCCOc1ccc(S(=O)(=O)C2(C(=O)NO)CCOCC2)cc1)Nc1cccc(OC(F)(F)F)c1` [Example 181], the negative-log IC50 (pIC50) is 7.58 on Human recombinant MMP-9 and 9.52 at Human recombinant MMP-13. Besides, the pKi on Human recombinant MMP-2 was 7.80.

With `CC(C)c1cccc(NC(=O)CCCOc2ccc(S(=O)(=O)C3(C(=O)NO)CCOCC3)cc2)c1` [Example 182], the figures for the negative logarithm of the IC50 (pIC50) at Human recombinant MMP-9 and at Human recombinant MMP-13 were 7.21 and 9.30, respectively. The pKi at Human recombinant MMP-2 was 7.46.

As for `COCCN1CCC(C(=O)NO)(S(=O)(=O)c2ccc(OCCCc3nc(-c4ccc(OC(F)(F)F)cc4)no3)cc2)CC1` [Example 190], the values for the pIC50 at Human recombinant MMP-9 and on Human recombinant MMP-13 were 5.76 and 9.30, respectively. Also, the pKi on Human recombinant MMP-2 was 6.55.

As for `O=C(NO)C1(S(=O)(=O)c2ccc(OCCCc3ccnc(-c4ccccc4)c3)cc2)CCOCC1` [Example 197], the figures for the pIC50 on Human recombinant MMP-9 and on Human recombinant MMP-13 were 6.36 and 9.30, respectively. Moreover, at Human recombinant MMP-2, the pKi was 7.51.

As to `O=C(CCCc1ccc(S(=O)(=O)C2(C(=O)NO)CCOCC2)cc1)c1cccc(-c2ccccc2)c1` [Example 219], the negative-log IC50 (pIC50) on Human recombinant MMP-9 is 7.11; at Human recombinant MMP-13 it was 9.40. The pKi at Human recombinant MMP-2 is 6.98.

Regarding `O=C(CCCOc1ccc(S(=O)(=O)C2(C(=O)NO)CCOCC2)cc1)Nc1ccc(OC(F)(F)F)cc1` [Example 228], the results for the negative logarithm of the IC50 (pIC50) on Human recombinant MMP-9 and on Human recombinant MMP-13 were 6.74 and 9.70, respectively. Further, the negative logarithm of the Ki (pKi) on Human recombinant MMP-2 was 7.65.

For `Cc1cc(OC(F)(F)F)ccc1NC(=O)CCCOc1ccc(S(=O)(=O)C2(C(=O)NO)CCOCC2)cc1` [Example 229], the pIC50 on Human recombinant MMP-9 is 6.53; on Human recombinant MMP-13, 8.77. The pKi at Human recombinant MMP-2 is 7.98.

Take `COc1ccc(/C(C#N)=C/CCCOc2ccc(S(=O)(=O)C3(C(=O)NO)CCN(C4CC4)CC3)cc2)cc1` [Example 233]: the pIC50 was 6.08 on Human recombinant MMP-9 and 10.00 at Human recombinant MMP-13. The pKi on Human recombinant MMP-2 is 7.22.

On to `CN(C(=O)CCCOc1ccc(S(=O)(=O)C2(C(=O)NO)CCOCC2)cc1)c1ccc(OC(F)(F)F)cc1` [Example 249], for which the pIC50 was 5.44 at Human recombinant MMP-9 and 8.29 at Human recombinant MMP-13. Moreover, the negative-log Ki (pKi) on Human recombinant MMP-2 was 6.48.

The values are drawn from patent publication US20040024024A1, “Aromatic sulfone hydroxamates and their use as protease inhibitors” (priority 2001, published 2004).
